# Where a name gives a salt, the structure may show the parent alone.
# Experiments:
# [1] = PAMPA; for Permeability (Log Pe, cm/sec) Porcine polar brain lipid (PBL): pig, pH 7.4
# in vitro [2] = details: PAMPA, pH 7.4
# [3] = PAMPA
# [4] = PAMPA; for Permeability (Log Pe, cm/sec) Microvessel lipid + cholesterol (MVLC): pH 7.4
# [5] = PAMPA; remark: listed apart in the source
# in vitro [6] = details: PAMPA, pH 7.4; remark: listed apart in the source
structure (smiles),measurement,setting,value
"CN1CC[C@]23c4c5ccc(O)c4O[C@H]2[C@@H](O)CC[C@H]3[C@H]1C5 [Dihydromorphine, dihydromorphine]","Permeability (Log Pe, cm/sec) Porcine polar brain lipid (PBL)",[1],−1.76 ± 0.09 cm/sec
same,Papp,in vitro [2],1510 ×10⁻⁶ cm/s
same,Ability to cross the dodecane barrier,[3],unable to cross the barrier
"CCC(=O)C(CC(C)N(C)C)(c1ccccc1)c1ccccc1 (racemic) [Methadone, (±) methadone HCl]","Permeability (Log Pe, cm/sec) Porcine polar brain lipid (PBL)",[1],−0.37 ± 0.07 cm/sec
same,"Permeability (Log Pe, cm/sec) Dodecane",[3]; pH 7.4,−1.54 ± 0.05 cm/sec
"CO[C@]12CC[C@@]3(C[C@@H]1[C@](C)(O)C(C)(C)C)[C@H]1Cc4ccc(O[C@@H]5O[C@H](C(=O)O)[C@@H](O)[C@H](O)[C@H]5O)c5c4[C@@]3(CCN1CC1CC1)[C@H]2O5 [Buprenorphine glucuronide, buprenorphine-3-β-D-glucuronide]","Permeability (Log Pe, cm/sec) Microvessel lipid + cholesterol (MVLC)",[4],−3.27 ± 0.21 cm/sec
"CN(C)C(=O)C(CCN1CCC(O)(c2ccc(Cl)cc2)CC1)(c1ccccc1)c1ccccc1 [Loperamide, loperamide]","Permeability (Log Pe, cm/sec) Microvessel lipid + cholesterol (MVLC)",[4],−1.97 ± 0.08 cm/sec
"Cn1c(=O)c2c(ncn2C)n(C)c1=O [Caffeine, caffeine]","Papp at 2 h, 2 µM",in vitro [2],724 ×10⁻⁶ cm/s
"Cc1nnc2n1-c1ccc(Cl)cc1C(c1ccccc1)=NC2 [Alprazolam, alprazolam]",Permeability in the MVLC model (in words),[4],highly permeability
same,Permeability in the PBL model (in words),[1],highly permeability
same,Permeability in the MVL model (in words),[5],highly permeability
"CN(C)C[C@H]1CCCC[C@]1(O)c1cccc(O)c1 [O-desmethyl tramadol, O-desmethyltramadol]","Permeability (Log Pe, cm/sec) Porcine polar brain lipid (PBL)",[1],−0.97 ± 0.04 cm/sec
COc1cccc(C2(O)CCCCC2CN(C)C)c1 (centres unmarked) [Tramadol],Papp,in vitro [6],117 ×10⁻⁶ cm/s
"COc1ccc2c3c1O[C@H]1C(=O)CC[C@@]4(O)[C@@H](C2)N(C)CC[C@]314 [Oxycodone, oxycodone]",Ability to cross the dodecane barrier,[3],unable to cross the barrier

# Reference: publication PMC4078735 (Journal of biomolecular screening, 2013)
